From patent US20090239880A1, “COMBINATIONS OF MONOAMINE REUPTAKE INHIBITORS AND POTASSIUM CHANNEL ACTIVATORS” (priority 2006, published 2009) come the findings set out here.

The structures appear in SMILES notation. Where a name gives a salt, the structure may show the parent alone. Some results are limits rather than exact numbers.

In one data set the test system is NMRI mice. Nature of the data set: reversal of tetrabenazine-induced ptosis. Type of data set: in vivo. The settings on record: test compound 0.3-3 mg/kg i.p. combined with sub-threshold reboxetine 0.1 mg/kg p.o. at -60 min, tetrabenazine 40 mg/kg i.p. at -30 min. The protocol:
Method: Mice were administered the test compound (0.3-3 mg/kg, i.p.) and reboxetine (0.1 mg/kg, p.o.) at timepoint −60 min, followed by tetrabenazine (40 mg/kg, i.p., −30 min). The presence of ptosis was then scored by a trained observer using a recognised rating scale: maximum score/mouse=4, minimum score/mouse=0.
Take `N=c1n(Cc2ccc(F)c(F)c2)c2ccccc2n1Cc1ccc(F)c(F)c1` [test compound, 1,3-Bis-(3,4-difluoro-benzyl)-1,3-dihydro-benzoimidazol-2-ylideneamine]: the “effect on ability of reboxetine to reverse tetrabenazine-induced ptosis (ptosis score)” value is “enhanced the ability of the latter to reverse tetrabenazine-incuced ptosis”.

Test system in a further data set: not given
Assay: not given
Conditions: not given
Take `Fc1ccc(C(c2ccc(F)cc2)N2CCN(c3nc4ccccc4[nH]3)CC2)cc1` (as salt: hydrochloride) [Example 9, 2-{4-[Bis-(4-fluorophenyl)methyl]piperazin-1-yl}-1H-benzoimidazole]: the melting point is > 240 °C (dec.). The same measure, in the same setting: then `Clc1ccc(OC2CCN(c3nc4ccccc4[nH]3)CC2)cc1Cl` (as salt: hydrochloride) [Example 10, 2-[4-(3,4-Dichlorophenoxy)piperidin-1-yl]-1H-benzoimidazole], with 297 to 298 °C; and `Clc1ccc(CC2CCN(c3nc4ccccc4[nH]3)CC2)cc1Cl` (as salt: salt) [Example 1, 2-[4-(3,4-Dichlorobenzyl)piperidin-1-yl]-1H-benzoimidazole], with 268 to 270 °C. Same read-out and setting: as for `c1ccc(CC2CCN(c3nc4ccccc4[nH]3)CC2)cc1` [Example 2, 2-(4-Benzylpiperidin-1-yl)-1H-benzoimidazole], the figure is 193 to 194 °C; as for `OC(c1ccccc1)(c1ccccc1)C1CCN(c2nc3ccccc3[nH]2)CC1` [Example 3, [1(1H-Benzoimidazol-2-yl)-piperidin-4-yl]diphenylmethanol], 237 to 239 °C.

`FC(F)(F)c1cc(Cn2c(N3CCC(Cc4ccccc4)CC3)nc3ccccc32)ccc1Cl` [Example 4, 2-(4-Benzylpiperidin-1-yl)-1-[4-chloro-3-(trifluoromethyl)benzyl]-1H-benzoimidazole] returned a melting point of 124 to 125.5 °C.

Molecule `Fc1ccc(Cn2c(N3CCC(Cc4ccccc4)CC3)nc3ccccc32)cc1F` [Example 5, 2-(4-Benzylpiperidin-1-yl)-1-(3,4-difluorobenzyl)-1H-benzoimidazole] returned a melting point of 155 to 155.5 °C.

Consider `c1ccc(C(c2ccccc2)N2CCN(c3nc4ccccc4[nH]3)CC2)cc1` [Example 6, 2-(4-Benzhydrylpiperazin-1-yl)-1H-benzoimidazole], for which the melting point is > 230 °C (dec.). Same read-out and setting: as for `c1ccc(C(=C2CCN(c3nc4ccccc4[nH]3)CC2)c2ccccc2)cc1` [Example 12, 2-(4-Benzhydrylidene-piperidin-1-yl)-1H-benzoimidazole], the figure is 229 to 230 °C; as for `c1ccc(C(c2ccccc2)C2CCN(c3nc4ccccc4[nH]3)CC2)cc1` [Example 13, 2-(4-Benzhydryl-piperidin-1-yl)-1H-benzoimidazole], 256 to 258 °C.

For the next data set, the target named is SK3 channels (Homo sapiens, UniProt Q9UGI6). Briefly: inhibition of SK3 channels in patchclamp electrophysiology (selectivity over monoamine reuptake in vitro). The data set is classed as cell-based. The settings on record: patchclamp electrophysiology vs [3H]DA, [3H]5-HT and [3H]NA reuptake in vitro. For orientation: Patch clamp records ionic current or voltage across a cell membrane.
Take `N=c1n(Cc2ccc(F)c(F)c2)c2ccccc2n1Cc1ccc(F)c(F)c1` [test compound, 1,3-Bis-(3,4-difluoro-benzyl)-1,3-dihydro-benzoimidazol-2-ylideneamine]: the “selectivity for inhibition of SK3 channels over inhibiton of [3H]DA, [3H]5-HT and [3H]NA reuptake” value is listed as “more than 100 fold”.

Another data set concerns NMRI mice. Briefly: nialamide induced 5-HT syndrome paradigm. The data set is classed as in vivo. The settings on record: nialamide 50 mg/kg s.c. at -120 min, test compound 0.3-3 mg/kg i.p. combined with sub-threshold citalopram 1 mg/kg p.o. at 0 min. The protocol: Method: Mice were administered nialamide (50 mg/kg, s.c., −120 min) followed by the test compound (0.3-3 mg/kg, i.p.) and citalopram (1 mg/kg, p.o) at time-point 0 min. The presence of head twitches, hindlimb abduction, head weaving, and piano playing behaviours were then scored by a trained observer using a recognised rating scale: maximum score/mouse=4, minimum score/mouse=0.
Turning to `N=c1n(Cc2ccc(F)c(F)c2)c2ccccc2n1Cc1ccc(F)c(F)c1` [test compound, 1,3-Bis-(3,4-difluoro-benzyl)-1,3-dihydro-benzoimidazol-2-ylideneamine], the “effect on ability of citalopram to induce symptoms analagous to the serotonin syndrome (5-HT syndrome score)” value is listed as “enhanced the ability of the latter to induce symptoms analagous to the serotonin syndrome”.

The term melting point denotes the temperature of the solid-liquid transition.
